Data as given in patent US10730857B2, “Benzocyanine compounds” (Pierce Biotechnology, Inc., priority 2011, dated 2020).

Key:
lamin B1 in U20S cells = experiment: Immunofluorescence, rabbit anti-lamin B1, U20S cells, GAR conjugates; type: cell-based
Description: The inventive compounds and commercial dye were evaluated for immunofluorescence in a second cell based assay using the following protocol. Frozen U20S cell plates stored at −20° C. were placed overnight at 4° C. Storage buffer (PBS) was removed and the cells were permeabilized for 15 min (100 μl/well) with 0.1% Triton-X100 in 1×PBS buffer. Plates were blocked for 30 min in 2% BSA in 1×PBS-0.1% Trion-X100. Primary antibodies diluted in 2% BSA in 1×PBS-0.1% Trion-X100 were added to the plates (column 1-11; column 12 included only blocker) and incubated five hours at room temperature. Mouse anti-lamin A was added at 2 μg/ml and rabbit anti-lamin B1 was added at 4 μg/ml. After incubation, the antibody solution was removed from the plates and the plates were washed PBS-0.5% Tween-20 (2×100 μl/well). Next, GAM and GAR secondary antibodies labeled with DyLight 680-NHS, DyLight 680B-NHS, 679 Compound 1-NHS, and Cy5.5 Mono Ester were diluted to 4 μg/ml in PBS and incubated with the cells for one hour at room temperature. […] The plates were scanned on ArrayScan Plate Reader for imaging and quantitation.

lamin A in U20S cells = experiment: Immunofluorescence, mouse anti-lamin A, U20S cells (FIG. 16); type: cell-based
Description: The inventive compounds and commercial dye were evaluated for immunofluorescence in a second cell based assay using the following protocol. Frozen U20S cell plates stored at −20° C. were placed overnight at 4° C. Storage buffer (PBS) was removed and the cells were permeabilized for 15 min (100 μl/well) with 0.1% Triton-X100 in 1×PBS buffer. Plates were blocked for 30 min in 2% BSA in 1×PBS-0.1% Trion-X100. Primary antibodies diluted in 2% BSA in 1×PBS-0.1% Trion-X100 were added to the plates (column 1-11; column 12 included only blocker) and incubated five hours at room temperature. Mouse anti-lamin A was added at 2 μg/ml and rabbit anti-lamin B1 was added at 4 μg/ml. After incubation, the antibody solution was removed from the plates and the plates were washed PBS-0.5% Tween-20 (2×100 μl/well). Next, GAM and GAR secondary antibodies labeled with DyLight 680-NHS, DyLight 680B-NHS, 679 Compound 1-NHS, and Cy5.5 Mono Ester were diluted to 4 μg/ml in PBS and incubated with the cells for one hour at room temperature. GAM and GAR conjugated to DyLight 680-NHS, DyLight 680B-NHS, 679 Compound 1-NHS, and Company B Compound at 10× molar excess were diluted to 4 μg/ml in PBS and then serially diluted 1:1 in the plate to the following concentrations: 2 μg/ml, 1 μg/ml, 0.5 μg/ml, 0.25 μg/ml, 0.125 μg/ml and/or 0.0625 μg/ml. The plates were washed 3× with 100 μl/well PBS, and Hoechst stain diluted to 0.1 μg/ml in PBS was added to each well (100 μl/well). The plates were scanned on ArrayScan Plate Reader for imaging and quantitation.

lamin A in A549 cells = experiment: Immunofluorescence, mouse anti-lamin A, A549 cells (FIG. 15); type: cell-based; conditions: GAM conjugates at 4× to 12× molar excess
Description: The inventive compounds were evaluated for immunofluorescence in cell based assays using the following protocol. Frozen A549 cell plates stored at −20° C. were placed for 30 min 50° C. Storage buffer (PBS) was removed and the cells were permeabilized for 15 min (100 μl/well) with 0.1% Triton-X100 in 1×PBS buffer. Plates were blocked for 30 min in 2% BSA in 1×PBS-0.1% Trion-X100. Primary antibodies diluted in 2% BSA in 1×PBS-0.1% Trion-X100 were added to the plates (column 1-11; column 12 included only blocker) and incubated […]. Mouse anti-lamin A was added at 1 μg/ml and rabbit anti-lamin B1 was added at 3 μg/ml. After overnight incubation, the antibody solution was removed from the plates and the plates were washed with PBS-0.5% Tween-20 (2×100 μl/well). GAM and GAR secondary antibodies labeled with DyLight 680-NHS, DyLight 680B-NHS, 679 Compound 1-NHS and Company B Compound-NHS were diluted to 4 μg/ml in PBS, added and incubated for one hour at room temperature. The plates were then washed three times with 100 μl/well PBS, and Hoechst stain diluted to 0.1 μg/ml in PBS was added to each well (100 μl/well). The plates were scanned on ArrayScan Plate Reader for imaging and quantitation.

streptavidin (SA) = streptavidin (SA) (Streptomyces avidinii, UniProt P22629); experiment: Labeling efficiency (degree of labeling) of streptavidin
Chain of streptavidin (SA) (P22629 25-183, species assumed): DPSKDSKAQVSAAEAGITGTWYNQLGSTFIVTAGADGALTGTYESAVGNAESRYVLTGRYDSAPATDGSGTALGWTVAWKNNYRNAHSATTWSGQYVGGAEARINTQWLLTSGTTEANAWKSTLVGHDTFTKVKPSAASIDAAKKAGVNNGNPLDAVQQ
Description: Inventive and commercial compounds, each as the NHS ester, were conjugated to goat anti-mouse (GAM) antibodies, goat anti-rabbit (GAR) antibodies, and streptavidin (SA). GAM, GAR, and SA, at a concentration of 10 mg/ml in phosphate buffered saline (PBS), were dialyzed against 50 mM borate buffer, pH 8.5. […]
The labeled compounds, also termed dyes or labels, were subjected to Pierce Dye Removal Resin (PDDR) to remove the unlabeled (free) compound; 100 μl of the packed resin was used per mg of protein purified. The purified antibody-labeled dyes were then diluted 1:50 in PBS and scanned for absorbance from 700 nm to 230 nm to determine the protein concentration, and to determine the mole dye to mole protein ratio. Each conjugate was diluted 1:10 in 50% glycerol and heated in the presence of 10 mM dithiothreitol (DTT) for 5 min at 95° C., then separated by electrophoresis on polyacrylamide gels in the presence of sodium dodecyl sulfate (SDS-PAGE). The gels were scanned using the Typhoon 9400 Imager to verify removal of the unconjugated compound. Labeling efficiency was compared, with results showing degree of labeling below.

[1] = Absorbance/emission spectral properties and fluorescence intensity of the dyes; type: physicochemical; conditions: 10 μg/ml in PBS buffer pH 7.2, FIG. 1
Description: Emission/excitation profiles for inventive and commercial compounds was determined by reconstituting the compounds in DMF at 10 mg/ml and then diluting in PBS buffer pH 7.2 to 10 μg/ml.

COCC[N+]1=C(/C=C/C=C/C=C2/N(CCCCCC(=O)O)c3ccc4c(S(=O)(=O)[O-])cc(S(=O)(=O)[O-])cc4c3C2(C)C)C(C)(CCCS(=O)(=O)[O-])c2c1ccc1c(S(=O)(=O)[O-])cc(S(=O)(=O)[O-])cc21.[Na+].[Na+].[Na+].[Na+] (centres unmarked) [679 Compound 1, 6-((E)-2-((2E,4E)-5-(3-(2-methoxyethyl)-1-methyl-6,8-disulfonato-1-(3-sulfonatopropyl)-1H-benzo[e]indol-3-ium-2-yl)penta-2,4-dien-1-ylidene)-1,1-dimethyl-6,8-disulfonato-1H-benzo[e]indol-3(2H)-yl)hexanoate]
Overall fluorescence signal intensity (in words) (lamin B1 in U20S cells; GAR conjugates): about two times higher compared to DyLight 680
S/B (in words) (lamin B1 in U20S cells; GAR labeled at 2×, 3× or 4× molar excess): comparable to each other and to DyLight 680 conjugates
Mean Total Intensity 2X (lamin A in U20S cells; GAM conjugated at 2X molar excess, FIG. 16): 232482
Mean Total Intensity 3X (lamin A in U20S cells; GAM conjugated at 3X molar excess, FIG. 16): 263580
Mean Total Intensity 4X (lamin A in U20S cells; GAM conjugated at 4X molar excess, FIG. 16): 330865
S/B (in words) (lamin A in U20S cells; GAM conjugates at the low molar excesses): comparable to each other and to DyLight 680
performance in immunofluorescence (in words) (lamin A in A549 cells): very similar performance to corresponding DyLight 680B conjugates
degree of labeling (streptavidin (SA); SA-6X molar excess): 4.0
degree of labeling (streptavidin (SA); SA-8X molar excess): 5.0
Max Abs ([1]; Cary UV spectrophotometer): 679 nm
Max E ([1]; emission, Tecan Safire): 704 nm
